Laboratory results reported in patent publication US20250236878A1 (priority 2019, published 2025).
Where two headings read alike, the source gives them in different places.

Assays:
[1] = test system: Citrus trees infected with CLas; format: in vivo, Citrus x paradisi; Citrus sinesis; details: average of 'Ruby Red' and 'Valencia'
Source text: Treatments as previously described in Example 3; β-1,3-Endoglucanase from barley SEQ ID NO: 731 (Treatment 1) and Bt.4Q7Flg22 from Bacillus thurigiensis SEQ ID NO: 226 (Treatment 5) increased fruit yield (kg/tree) as described in Table 56. Fruit quality, and juice quality of ‘Valencia’ oranges are described in Table 57.
For direct comparison of the treatment results between grapefruit (‘Ruby Red’) and orange (‘Valencia’) are referenced in Table 56 above.

[2] = test system: Citrus trees infected with CLas; assay: Recovery composition trunk injection: 'Valencia' orange fruit yield (Examples 3, 19); format: in vivo, Citrus sinesis; details: for Average Yield (Relative to Untreated) / Average Yield (kg per tree): 'Valencia' orange; for Average Yield (Relative to Untreated) / Average Yield (kg per tree) / increased yield compared to the untreated control: trunk injection; for increased yield compared to the untreated control: 'Valencia' trees; for yield, average relative to control: 'Valencia', combined average of 2 sites (Table 56)
[3] = test system: Citrus trees infected with Candidatus Liberibacter asiaticus; format: in vivo, Citrus x paradisi
[4] = test system: Citrus trees infected with CLas; set-up: species or system Citrus sinesis; details: in vivo
[5] = test system: Citrus trees infected with Candidatus Liberibacter asiaticus (CLas); set-up: species or system Citrus sinensis; details: in vivo
[6] = test system: Citrus trees infected with Candidatus Liberibacter asiaticus (CLas); set-up: species or system Citrus sinensis; details: in vivo; remark: listed apart in the source
[7] = test system: Candidatus Liberibacter asiaticus (CLas); details: in vivo
[8] = test system: corn hybrids Beck's 6127 BHMF and 6127 DVMF; details: in vivo
[9] = test system: Citrus trees infected with Candidatus Liberibacter asiaticus; set-up: species or system Citrus x paradisi; details: in vivo
[10] = test system: field mustard (Brassica rapa) seedlings; assay: Root hair and lateral root elongation in liquid-culture grown field mustard seedlings (Example 13); details: for Experiment A: Average Root Hair Length Per Plant (mm) / Experiment B: Average Length of Three Longest Lateral Roots Per Plant (mm) / Experiment A: Average Root Hair Length Per Plant, % of UTC / Experiment B: Average Length of Three Longest Lateral Roots Per Plant, % of UTC: field mustard seedlings, peptide 10 μM; for Experiment A: Average Root Hair Length Per Plant (mm) / Experiment B: Average Length of Three Longest Lateral Roots Per Plant (mm) / average lateral root length compared to untreated control / average root hair length compared to untreated control / increases in average lateral root length relative to control / increases in root hair length relative to control: liquid culture; for Experiment A: Average Root Hair Length Per Plant (mm) / Experiment B: Average Length of Three Longest Lateral Roots Per Plant (mm): about three days; for Experiment A: Average Root Hair Length Per Plant (mm): UTC = 0.137; for Experiment B: Average Length of Three Longest Lateral Roots Per Plant (mm): UTC = 0.632; for average lateral root length compared to untreated control / average root hair length compared to untreated control / increases in average lateral root length relative to control / increases in root hair length relative to control: approximately three days
[11] = test system: HLB-infected citrus trees; assay: Citrus trials of Examples 20-24: fruit yield, size, count and drop, average over orange and grapefruit trials; format: in vivo, Citrus sinesis; Citrus paradisi
Experimental: All fruit with a diameter greater than or equal to 1.6 inches (40 mm) were hand-picked and collected for each tree. The total “Fruit Weight” (in kilograms) per individual tree was measured and recorded. Trees with total fruit weights less than or greater than 2 standard deviations (2STDEV) from the trial mean were considered to be outliers and removed from the dataset. Fruit size was assessed as the “Average Weight per Fruit” in grams (weight of 20 random fruit per tree, divided by 20) and “Average Fruit Diameter” in millimeters, as described in Example 1. The “Average Fruit Count” per tree was assessed as the total “Fruit Weight” divided by “Average Weight per Fruit”. “Fruit Drop” was assessed as for Example 1. Fruit quality was assessed as for Example 2, with the exception that one set of fruit consisted for 15 total fruit, each corresponding to a sampling of 3 fruit from 5 trees of the same experimental treatment block. Each set of 15 fruit were weighed (gram; g) and then juiced together. Average yield, % fruit drop, fruit size, and juice quality for each of the tested compositions are described in Examples 20-24.

[12] = test system: HLB-infected citrus trees; set-up: species or system Citrus sinesis; Citrus paradisi; details: in vivo

| Molecule | Experiment A: Average Root Hair Length Per Plant (mm) [10] [mm] | Experiment B: Average Length of Three Longest Lateral Roots Per Plant (mm) [10] [mm] | Experiment A: Average Root Hair Length Per Plant, % of UTC [10] | Experiment B: Average Length of Three Longest Lateral Roots Per Plant, % of UTC [10] | average lateral root length compared to untreated control [10] | average root hair length compared to untreated control [10] | also measured |
| --- | --- | --- | --- | --- | --- | --- | --- |
| N[C@@H](CS)C(=O)O [L-Cysteine, L-cysteine] |  |  |  |  |  |  | Average Yield (Relative to Untreated), Average of 2 sites [1]: (103%); Average Yield (Relative to Untreated) [2]: (105%); Average Yield (kg per tree) [2]: 42.3 kg per tree; increased yield compared to the untreated control [2]: +2.0 kg per tree; yield, average relative to control [2]: 103%; Average Yield (Relative to Untreated) ([3]; […], trunk injection): (101%); Average Yield (kg per tree) ([3]; […], trunk injection): 34.8 kg per tree; Average Fruit Diameter (Relative to Untreated) [4]: (104%); Average Fruit Diameter (mm) [4]: 62.52 mm; Brix:CA Ratio [4]: 12.76; Brix:CA Ratio (Relative to Untreated) [4]: (+1.51); fruit size and ^oBrixc to Citric Acid ratio (Brix:CA) relative to the untreated control [4]: increased |
| DRLSSGKRINSAKDDAAGLAIA (listed as Bacillus thuringiensis) [Bt.4Q7Flg22Syn01, Modified FLG22-Bt4Q7 (S13K)] |  |  |  |  |  |  | Brix [5]: 9.4; juice content [5]: 46%; total increased yield (kg) per tree [6]: 26% |
| DRLSSGKRINSASDDAAGLAIA (listed as Bacillus thuringiensis) [Bt.4Q7Flg22, Flg22 flagellin-associated polypeptide from Bacillus thuringiensis strain 4Q7] |  |  |  |  |  |  | decreased bacterial titers relative to the untreated control [7]: 20%; reduction in CLas bacterial titers compared to initial levels [7]: 16%; Average Yield (Relative to Untreated), Average of 2 sites [1]: (113%); Average Yield (Relative to Untreated) [2]: (119%); Average Yield (kg per tree) [2]: 48.1 kg per tree; increased yield compared to the untreated control [2]: 7.8 kg per tree; yield, average relative to control [2]: 113%; Average Yield (Relative to Untreated) ([3]; in vivo): (108%); Average Yield (kg per tree) ([3]; in vivo): 37.2 kg per tree; increased yield compared to the untreated control ([3]; in vivo): 2.6 kg per tree; Average Fruit Diameter (Relative to Untreated) [4]: (101%); Average Fruit Diameter (mm) [4]: 60.72 mm; Brix:CA Ratio [4]: 12.11; Brix:CA Ratio (Relative to Untreated) [4]: (+0.86); fruit size and ^oBrixc to Citric Acid ratio (Brix:CA) relative to the untreated control [4]: increased; average yield benefit over the control corn plants [8]: +6.44 flu/Ac; total increased yield (kg) per tree [6]: 33%; fruit size, juice volume, % juice content and ^oBrixc to Citric Acid ratio (Brix:CA) relative to the untreated control [9]: increased |
| GGARAAPAGEER (Brachypodium distachyon) [SEQ ID NO: 747] | 0.137 | 0.959 | (99% of UTC) | (152% of UTC) | Increased | did not improve |  |
| GGIRAAPT (listed as Physcomitrella patens) [SEQ ID NO: 745] | 0.145 | 0.853 | (105% of UTC) | (135% of UTC) | Increased | increased |  |
| GGIRAAPTGKER [SEQ ID NO: 754] |  |  |  |  | Increased | increased |  |
| GGIRAAPTGNER (Glycine max) [GmRHPP] | 0.172 | 0.971 | (125% of UTC) | (154% of UTC) | Increased | increased | increased yield (kg fresh fruit per tree) relative to control trees treated with surfactant control alone, on average ([11]; foliar (Table 73)): 13.9%; decrease in fruit drop relative to surfactant control, on average ([11]; foliar (Table 74)): 22%; more fruit retained at harvest relative to surfactant control, on average ([11]; foliar (Table 74)): 19%; effect on fruit size ([11]; foliar (Table 75)): no effect; fruit weigh more than fruit from control trees treated with surfactant alone, on average ([11]; foliar (Table 75)): 6.2%; reduction in CLas bacterial titers compared to initial levels [7]: 17%; ^oBrixc:Citric Acid Ratio and pounds-solids per tree [12]: increased; more total sugar than control trees treated with surfactant alone, on average [12]: 13.500; increases in average lateral root length relative to control [10]: +54%; increases in root hair length relative to control [10]: +25% |
| GGIRAARTGNER [SEQ ID NO: 753] |  |  |  |  | Increased | increased |  |
| GGIRASPTGNER [SEQ ID NO: 755] |  |  |  |  | Increased | increased |  |
| GGIRATPTENER (Glycine max) [SEQ ID NO: 607] |  |  |  |  | Increased | increased |  |
| GGIRDAPTGNER [SEQ ID NO: 752] |  |  |  |  | Increased | increased |  |
| GGIRRAPTGNER [SEQ ID NO: 751] |  |  |  |  | Increased | increased |  |
| GGIRRARTGNE (listed as Vigna radiata) [SEQ ID NO: 750] | 0.147 |  | (107% of UTC) |  | Increased | increased |  |
| GGIRTAITGNE (listed as Vigna angularis) [SEQ ID NO: 748] | 0.151 | 0.929 | (110% of UTC) | (147% of UTC) | Increased | increased |  |
| GGIRVAATGKER (Glycine max) [SEQ ID NO: 608] |  |  |  |  | Increased | increased |  |
| GGISASPTGN (listed as Lactuca sativa) [SEQ ID NO: 749] | 0.182 | 1.058 | (132% of UTC) | (168% of UTC) | Increased | increased | increases in average lateral root length relative to control [10]: +68%; increases in root hair length relative to control [10]: +32% |
| GIRDAPAGNE (listed as Macleaya cordata) [SEQ ID NO: 746] | 0.165 | 0.822 | (120% of UTC) | (130% of UTC) | Increased | increased |  |
